The first experiment concerns the target T1, vanilloid receptor 1 (VR1/TRPV1 receptor) (Homo sapiens, UniProt Q8NER1).
T1 construct: expressed in transfected cells; host or cells: CHO K1 cells (ECACC), stably transfected
Description: Functional testing on vanilloid receptor 1: FLIPR Ca2+ influx assay against capsaicin (Cap) in transfected CHO K1 cells (pharmacological method II). As to (f) Ki (human being) [nM] Cap: 100 nM capsaicin. The format is cell-based. Conditions: @ 5µM; human VR1 in CHO K1 cells; capsaicin; relative to maximum inhibition with 10 µM capsazepine; read-out: inhibition (as a percentage), printed in column (f) Ki (human being) [nM] Cap.
Source text: […]
T1 sequence (Q8NER1 whole entry): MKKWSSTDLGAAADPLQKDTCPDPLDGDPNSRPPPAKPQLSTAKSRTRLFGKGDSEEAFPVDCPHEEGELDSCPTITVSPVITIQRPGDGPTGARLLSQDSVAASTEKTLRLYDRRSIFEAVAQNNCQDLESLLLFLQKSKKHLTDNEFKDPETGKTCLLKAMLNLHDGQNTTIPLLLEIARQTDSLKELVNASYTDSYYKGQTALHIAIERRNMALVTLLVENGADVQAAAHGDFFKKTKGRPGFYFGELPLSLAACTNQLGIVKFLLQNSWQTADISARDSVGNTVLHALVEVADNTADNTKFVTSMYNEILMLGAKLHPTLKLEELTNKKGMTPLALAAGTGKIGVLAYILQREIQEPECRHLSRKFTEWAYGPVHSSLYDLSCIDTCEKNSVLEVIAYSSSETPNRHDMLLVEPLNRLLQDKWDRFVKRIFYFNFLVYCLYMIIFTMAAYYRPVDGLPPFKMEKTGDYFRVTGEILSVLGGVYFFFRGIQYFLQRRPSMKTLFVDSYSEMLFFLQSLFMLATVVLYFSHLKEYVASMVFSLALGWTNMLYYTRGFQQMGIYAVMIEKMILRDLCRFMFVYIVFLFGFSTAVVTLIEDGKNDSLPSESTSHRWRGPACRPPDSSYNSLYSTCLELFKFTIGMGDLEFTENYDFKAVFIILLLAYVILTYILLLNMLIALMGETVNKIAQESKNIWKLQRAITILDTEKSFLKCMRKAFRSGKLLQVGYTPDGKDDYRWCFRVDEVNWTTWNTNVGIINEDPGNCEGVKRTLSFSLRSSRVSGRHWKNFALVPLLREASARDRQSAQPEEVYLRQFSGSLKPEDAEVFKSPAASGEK
Regarding `CC(CO)(CO)c1ccc(NC(=O)NCc2cc(C(F)(F)F)nn2-c2cccc(Cl)c2)cc1` [A155, 1-[[2-(3-Chlorophenyl)-5-(trifluoromethyl)-2H-pyrazol-3-yl]-methyl]-3-[4-[2-hydroxy-1-(hydroxymethyl)-1-methyl-ethyl]-phenyl]-urea], the inhibition (commonly the relative decrease from the control value, in per cent) at 5 µM was determined as 26%.

Still in this experiment, the particulars now being: read-out: (f) Ki (human being) [nM] Cap.
Regarding `CC(C(=O)NCc1cc(C(C)(C)C)nn1-c1cccc(OC(F)(F)F)c1)c1ccc(COCCO)c(F)c1` (centres unmarked) [A125, N-[[5-tert-Butyl-2-[3-(trifluoromethyloxy)-phenyl]-2H-pyrazol-3-yl]-methyl]-2-[3-fluoro-4-(2-hydroxy-ethoxy-methyl)-phenyl]-propionamide], the Ki (usually the equilibrium dissociation constant of an inhibitor or competing ligand from its target) was 15 nM. As to `CC(C(=O)NCc1cc(C(F)(F)F)nn1-c1ccc(F)c(F)c1)c1ccc(C2(O)CC2)c(F)c1` (centres unmarked) [A104, N-[[2-(3,4-Difluoro-phenyl)-5-(trifluoromethyl)-2H-pyrazol-3-yl]-methyl]-2-[3-fluoro-4-(1-hydroxy-cyclopropyl)-phenyl]-propionamide], the Ki stood at 12 nM. Same read-out and setting: the same measure for `CC(C(=O)NCc1cc(C(F)(F)F)nn1-c1ccc(F)c(Cl)c1)c1ccc(COCCO)c(F)c1` (centres unmarked) [A121, N-[[2-(3-Chloro-4-fluoro-phenyl)-5-(trifluoromethyl)-2H-pyrazol-3-yl]-methyl]-2-[3-fluoro-4-(2-hydroxy-ethoxy-methyl)-phenyl]-propionamide]: 20 nM. With `CC(C(=O)NCc1cc(C(F)(F)F)nn1-c1cccc(Cl)c1)c1ccc(CO)c(F)c1` (centres unmarked) [A33, N-[[2-(3-Chlorophenyl)-5-(trifluoromethyl)-2H-pyrazol-3-yl]-methyl]-2-[3-fluoro-4-(hydroxymethyl)-phenyl]-propionamide], the Ki is 2 nM. For `CCOc1ccc(C)cc1-n1nc(C(F)(F)F)cc1CNC(=O)Nc1ccc(CO)c(F)c1` [A88, 1-[[2-(2-Ethoxy-5-methyl-phenyl)-5-(trifluoromethyl)-2H-pyrazol-3-yl]-methyl]-3-[3-fluoro-4-(hydroxymethyl)-phenyl]-urea], the Ki amounted to 86 nM.

For `CC(C(=O)NCc1cc(C(F)(F)F)nn1-c1cccc(Cl)c1)c1cc(F)c(O)c(F)c1` (centres unmarked) [A10, N-[[2-(3-Chlorophenyl)-5-(trifluoromethyl)-2H-pyrazol-3-yl]-methyl]-2-(3,5-difluoro-4-hydroxy-phenyl)-propionamide], the Ki is 1 nM.

In the case of `Cc1cccc(-n2nc(C(F)(F)F)cc2CNC(=O)Nc2ccc(CO)c(F)c2)c1` [A70, 1-[3-Fluoro-4-(hydroxymethyl)-phenyl]-3-[[2-(m-tolyl)-5-(trifluoromethyl)-2H-pyrazol-3-yl]-methyl]-urea], the inhibition constant (Ki) was 9 nM.

`CC(C)(C)c1cc(CNC(=O)Nc2ccc(C3(O)CC3)c(F)c2)n(-c2cccc(Cl)c2)n1` [A105, 1-[[5-tert-Butyl-2-(3-chlorophenyl)-2H-pyrazol-3-yl]-methyl]-3-[3-fluoro-4-(1-hydroxy-cyclopropyl)-phenyl]-urea]: the Ki was 19 nM. In the case of `CC(C(=O)NCc1cc(C(F)(F)F)nn1-c1cccc(Cl)c1)c1ccc(CCO)c(F)c1` (centres unmarked) [A138, N-[[2-(3-Chlorophenyl)-5-(trifluoromethyl)-2H-pyrazol-3-yl]-methyl]-2-[3-fluoro-4-(2-hydroxy-ethyl)-phenyl]-propionamide], the Ki amounted to 8 nM. Consider `CC(C(=O)NCc1cc(C(F)(F)F)nn1-c1cccc(Cl)c1)c1cc(F)c(CO)c(F)c1` (centres unmarked) [A52, N-[[2-(3-Chlorophenyl)-5-(trifluoromethyl)-2H-pyrazol-3-yl]-methyl]-2-[3,5-difluoro-4-(hydroxymethyl)-phenyl]-propionamide], for which the Ki was 140 nM.

Turning to `COc1c(F)cc(CC(=O)NCc2cc(C(F)(F)F)nn2-c2cccc(Cl)c2)cc1F` [A2, N-[[2-(3-Chlorophenyl)-5-(trifluoromethyl)-2H-pyrazol-3-yl]-methyl]-2-(3,5-difluoro-4-methoxy-phenyl)-acetamide], the Ki was 33 nM. For the molecule `C[C@@H](C(=O)NCc1cc(C(F)(F)F)nn1-c1cccc(Cl)c1)c1ccc(COCCO)c(F)c1` [A120, (2R)-N-[[2-(3-Chlorophenyl)-5-(trifluoromethyl)-2H-pyrazol-3-yl]-methyl]-2-[3-fluoro-4-(2-hydroxy-ethoxy-methyl)-phenyl]-propionamide], the Ki came to 5 nM. Consider `COCCOCc1ccc(C(C)C(=O)NCc2cc(C(F)(F)F)nn2-c2ccc(F)c(Cl)c2)cc1F` (centres unmarked) [A112, N-[[2-(3-Chloro-4-fluoro-phenyl)-5-(trifluoromethyl)-2H-pyrazol-3-yl]-methyl]-2-[3-fluoro-4-(2-methoxy-ethoxy-methyl)-phenyl]-propionamide], for which the Ki stood at 79 nM. With `O=C(NCc1cc(C(F)(F)F)nn1-c1ccc(F)c(Cl)c1)Nc1ccc(COCCO)c(F)c1` [A130, 1-[[2-(3-Chloro-4-fluoro-phenyl)-5-(trifluoromethyl)-2H-pyrazol-3-yl]-methyl]-3-[3-fluoro-4-(2-hydroxy-ethoxy-methyl)-phenyl]-urea], the Ki was found to be 47 nM. For `O=C(NCc1cc(C(F)(F)F)nn1-c1cccc(Cl)c1)Nc1ccc(OCC(O)CO)cc1` (centres unmarked) [A23, 1-[[2-(3-Chlorophenyl)-5-(trifluoromethyl)-2H-pyrazol-3-yl]-methyl]-3-[4-(2,3-dihydroxy-propoxy)-phenyl]-urea], the inhibition constant Ki came out at 35 nM.

`C[C@@H](C(=O)NCc1cc(C(F)(F)F)nn1-c1cccc(Cl)c1)c1ccc(CO)c(F)c1` [A35, (2R)-N-[[2-(3-Chlorophenyl)-5-(trifluoromethyl)-2H-pyrazol-3-yl]-methyl]-2-[3-fluoro-4-(hydroxymethyl)-phenyl]-propionamide]: the Ki was 1 nM.

In the case of `O=C(NCc1cc(C(F)(F)F)nn1-c1cccc(Cl)c1)Nc1ccc(CO)cc1` [A28, 1-[[2-(3-Chlorophenyl)-5-(trifluoromethyl)-2H-pyrazol-3-yl]-methyl]-3-[4-(hydroxymethyl)-phenyl]-urea], the Ki was determined as 22 nM. In the case of `CC(C(=O)NCc1cc(C(F)(F)F)nn1-c1ccc(F)cc1)c1ccc(CO)c(F)c1` (centres unmarked) [A46, 2-[3-Fluoro-4-(hydroxymethyl)-phenyl]-N-[[2-(4-fluorophenyl)-5-(trifluoromethyl)-2H-pyrazol-3-yl]-methyl]-propionamide], the Ki was determined as 46 nM. Regarding `O=C(NCc1cc(C(F)(F)F)nn1-c1cccc(F)c1)Nc1ccc(CO)c(F)c1` [A62, 1-[3-Fluoro-4-(hydroxymethyl)-phenyl]-3-[[2-(3-fluorophenyl)-5-(trifluoromethyl)-2H-pyrazol-3-yl]-methyl]-urea], the Ki is 30 nM. For `COc1c(Cl)cccc1-n1nc(C(F)(F)F)cc1CNC(=O)Nc1ccc(CO)c(F)c1` [A90, 1-[[2-(3-Chloro-2-methoxy-phenyl)-5-(trifluoromethyl)-2H-pyrazol-3-yl]-methyl]-3-[3-fluoro-4-(hydroxymethyl)-phenyl]-urea], the Ki worked out at 27 nM.

Regarding `CC(C(=O)NCc1cc(C(F)(F)F)nn1-c1cccc(Cl)c1)c1ccc(C2(O)CC2)c(F)c1` (centres unmarked) [A101, N-[[2-(3-Chlorophenyl)-5-(trifluoromethyl)-2H-pyrazol-3-yl]-methyl]-2-[3-fluoro-4-(1-hydroxy-cyclopropyl)-phenyl]-propionamide], the Ki is 4 nM. In the case of `O=C(NCc1cc(C(F)(F)F)nn1-c1cccc(C(F)F)c1)Nc1ccc(CO)c(F)c1` [A83, 1-[[2-[3-(Difluoro-methyl)-phenyl]-5-(trifluoromethyl)-2H-pyrazol-3-yl]-methyl]-3-[3-fluoro-4-(hydroxymethyl)-phenyl]-urea], the inhibitory constant (Ki) is 12 nM.

The values are drawn from patent publication EP2776398B1, “SUBSTITUTED PYRAZOLYL-BASED UREA DERIVATIVES AS VANILLOID RECEPTOR LIGANDS” (Medifron DBT Inc., priority 2011, dated 2013).
